The series can be described thus: solvent given as SMILES.

For the setting “in ClC(Cl)Cl”, `F[B-]1(F)OC(c2ccc(C(F)(F)F)cc2)=Cc2c3ccccc3cc[n+]21` displayed an emission maximum of 464.6 nm.

Molecule `Cc1ccc(-c2ccc(/C=C/c3ccc([N+](=O)[O-])cc3)cn2)nc1` displayed an emission maximum (in CC#N) of 551 nm.

In the case of `COc1cc2c(cc1-c1ccc(C(F)(F)F)cc1)Cc1c3c(c4c(c1-2)-c1cc(OC)c(-c2ccc(C(F)(F)F)cc2)cc1C4)C(=O)N(CCC(C)C)C3=O`, the emission maximum (in C1CCOC1) stood at 458 nm.

`CCC1(CC)c2cc(/C=C/c3ccc(N(c4ccccc4)c4ccccc4)cc3)ccc2-c2ccc(/C=C/c3ccc(N(c4ccccc4)c4ccccc4)cc3)cc21` came in with an emission maximum (in Cc1ccccc1) of 451 nm.

For `CCCCc1cc2c3c(c1)-c1ccccc1B(c1c(C)cc(C)cc1C)N3B(c1c(C)cc(C)cc1C)c1ccccc1-2`, the emission maximum (in ClCCl) is given as 413 nm.

With `CCn1c2ccccc2c2cc(-c3cc(-c4ccc5c(c4)c4ccccc4n5CC)nc(-c4ccccc4)n3)ccc21`, the emission maximum is, setting by setting: (in C1CCOC1) 391 nm; (in CCOC(C)=O) 389 nm; (in CN(C)C=O) 415 nm; (in Cc1ccccc1) 380 nm; (in ClCCl) 405 nm.

In turn, `CCCCCCCCCCCCCCCCOc1cc(C#Cc2ccc3ccccc3c2)c(OCCCCCCCCCCCCCCCC)cc1C#Cc1ccc(C=C(C#N)C#N)cc1` had an emission maximum (in Brc1ccccc1) of 582 nm; an emission maximum (in C1CCCCC1) of 484 nm; an emission maximum (in C1CCOC1) of 602 nm; an emission maximum (in C1COCCO1) of 554 nm; an emission maximum (in CCCCCC) of 480 nm; an emission maximum (in CCCCCCCCO) of 596 nm. The emission maximum was found to be 524 nm (in CCCCOCCCC); 590 nm (in CCOC(C)=O); 550 nm (in CCOCC); 530 nm (in Cc1ccccc1); 500 nm (in ClC(Cl)(Cl)Cl); 596 nm (in ClC(Cl)Cl). The molecule also returned an emission maximum (in ClCCl) of 618 nm.

Regarding `CC(C)(C)c1ccc(N(c2ccc(C(C)(C)C)cc2)c2ccc3c(N(c4ccc(C(C)(C)C)cc4)c4ccc(C(C)(C)C)cc4)cc4c5cc(N(c6ccc(C(C)(C)C)cc6)c6ccc(C(C)(C)C)cc6)ccc5c(N(c5ccc(C(C)(C)C)cc5)c5ccc(C(C)(C)C)cc5)cc4c3c2)cc1`, the emission maximum runs as follows: (in CC#N) 470 nm; (in CCCCCC) 456 nm; (in ClCCl) 471 nm.

Turning to `Cc1cc(=O)oc2cc3c(cc12)c1c2ccccc2c2ccccc2c1c1c2ccccc2c2ccccc2c31`, the emission maximum (in ClC(Cl)Cl) was 536 nm.

On to `COc1cc2c(cc1F)c(=O)c1cc(F)c(OC)cc1n2Cc1ccccc1`, for which the emission maximum (in CCO) is listed as 416 nm.

On to `CCN(CC)c1ccc(/C=C/C2=[O+][B-](F)(F)Oc3c2c(=O)oc2cc(N(CC)CC)ccc32)cc1`, for which the emission maximum reads like this: (in C1CCCCC1) 556 nm; (in C1COCCO1) 610 nm; (in CC#N) 644 nm; (in CC(C)=O) 636 nm; (in CCO) 635 nm; (in CCOC(C)=O) 617 nm. For the same molecule, the emission maximum is, setting by setting: (in CO) 637 nm; (in CS(C)=O) 659 nm; (in Cc1ccccc1) 597 nm; (in ClC(Cl)Cl) 622 nm; (in ClCCl) 634 nm; (in OCC(O)CO) 654 nm. Under “in OCCO”, this molecule returned an emission maximum of 653 nm.

Where the note is “in CS(C)=O”, `O=C1CCCC2=C1C(c1ccc([N+](=O)[O-])cc1)c1c(c3ccccc3oc1=O)N2` (stereo not given) returned an emission maximum of 441 nm.

As for `COc1ccc2c(c1)nc(-c1ccccc1)n2-c1ccccc1`, the emission maximum (in CC#N) was 391 nm.

On to `CCCn1c(=O)c(/C=C/c2nc3ccc(C)cc3n(CCC)c2=O)nc2ccc(C)cc21`, for which the emission maximum amounted to 484 nm (in C1COCCO1), 502 nm (in CC#N) and 490 nm (in ClCCl).

Regarding `O=Cc1ccc(-c2cccc(-c3nc4ccccc4s3)c2O)o1`, the emission maximum (in CCO) is 567 nm, the emission maximum (in ClCCl) came out at 565 nm and the emission maximum (in O) turned out to be 585 nm.

On to `CC1(C)C(/C=C/C=C/C=C/C=C2\N(CCCCS(=O)(=O)[O-])c3ccc4ccccc4c3C2(C)C)=[N+](CCCCS(=O)(=O)[O-])c2ccc3ccccc3c21`, for which, where the note is “in O”, the emission maximum is 820 nm.

Take `Cc1cc2nc3cc(C)c(N)cc3[n+](-c3ccccc3)c2cc1N`: the emission maximum is, setting by setting: (in CC(C)O) 562 nm; (in CCO) 564 nm; (in CO) 563.8 nm; (in O) 588.3 nm.

`O=C1OC(c2ccccc2)=N/C1=C\c1ccccc1` gave an emission maximum (in C1COCCO1) of 447 nm.

The molecule `CC(C)(C(=O)c1ccc(N2c3ccccc3Oc3ccccc32)cc1)C(=O)c1ccc(N2c3ccccc3Oc3ccccc32)cc1` had an emission maximum (in Cc1ccccc1) of 562 nm and an emission maximum (in c1ccc2c(c1)c1ccccc1n2-c1ccc(-c2ccc(-n3c4ccccc4c4ccccc43)cc2)cc1) of 520.81 nm.

For the molecule `Nc1cc2nc3cc(F)c(F)cc3nc2cc1N`, where the note is “in CCO”, the emission maximum is reported as 537 nm.

With `CCN(CC)c1ccc2c(c1)oc(=O)c1cc3c(-c4ccccc4)nn(-c4ccccc4)c3nc12`, the emission maximum (in ClCCl) is 509 nm.

`c1ccc(Nc2nc(Nc3ccccc3)nc(Nc3ccc4ccc5cccc6ccc3c4c56)n2)cc1`: the emission maximum (in CC#N) stood at 395 nm, the emission maximum (in CCCCOCCCC) was 394 nm and the emission maximum (in CO) was 395 nm.

In the case of `CC1(C)c2ccccc2N(c2ccc(-c3ccc(C#N)cn3)cc2)c2ccccc21`, the emission maximum runs as follows: (in Cc1ccccc1) 504 nm; (in N#Cc1ccc2c(c1)c1ccccc1n2-c1cccc(-n2c3ccccc3c3ccccc32)c1) 495 nm.

Where the note is “in c1ccccc1”, `Cc1nc2c(ccc3ccc(N(C)C)cc32)oc1=O` displayed an emission maximum of 564 nm.

In turn, `CC(=O)c1ccc(-c2cc(C)[o+]c(C)c2)cc1` showed an emission maximum (in ClCCl) of 405 nm.

`C[Si]1(C)C(c2ccccc2)=Cc2ccccc21` displayed an emission maximum (in ClCCl) of 390 nm.

For the setting “in C1COCCO1”, `CC(=O)Nc1ccc(C2=C/C(=C\c3ccc([N+](=O)[O-])cc3)C(=O)O2)cc1` had an emission maximum of 550 nm.

For `c1cc2ccc1CCCc1ccc(c3nsnc13)CCC2`, the emission maximum turned out to be 468 nm (in C1CCCCC1), 497 nm (in CC#N) and 496 nm (in ClC(Cl)Cl).

Molecule `CC(C)c1ccc(/C=C/c2nc3ccc(N(C)C)cc3s2)cc1` came in with an emission maximum (in C1CCCCC1) of 454 nm and an emission maximum (in CC#N) of 517 nm.

For the setting “in CC#N”, `CN(C)c1ccc(-c2nc3cc(C(F)(F)F)ccc3n2-c2ccccc2)cc1` gave an emission maximum of 406 nm.

`CCCCCCN1C(=O)c2cccc3c(-c4ccc(OC)s4)ccc(c23)C1=O` gave an emission maximum (in ClC(Cl)Cl) of 503 nm.

As to `CCCCCn1c2ccccc2c(=O)c2ccccc21`, the emission maximum (in CS(C)=O) is 414 nm and the emission maximum (in O) amounted to 428 nm.

For the molecule `CC1=CC2=Nc3nc(C)[n+](C)cc3CN2C=C1`, the emission maximum runs as follows: (in CC#N) 432 nm; (in CCO) 433 nm; (in O) 426 nm.

As to `CCCCCCCCOc1ccc(C2=C(c3ccc(OCCCCCCCC)cc3)C(C)(C)c3ccccc32)cc1`, the emission maximum (in C1CCCCC1) is listed as 390 nm.

In turn, `COc1cc(/C=C/c2cc(OC)c(-c3nc(-c4ccccc4)c(-c4ccccc4)[nH]3)cc2OC)c(OC)cc1/C=C/c1cc(OC)c(-c2nc(-c3ccccc3)c(-c3ccccc3)[nH]2)cc1OC` showed an emission maximum (in C1CCOC1) of 510 nm, an emission maximum (in CC#N) of 515 nm, an emission maximum (in CN(C)C=O) of 512 nm and an emission maximum (in Cc1ccccc1) of 502 nm.

On to `O=C1c2ccccc2S(=O)(=O)c2ccc(-n3c4ccccc4c4ccccc43)cc21`, for which the emission maximum is 576 nm (in C1CCOC1); 485 nm (in CCCCCC); 535.5 nm (in Cc1ccccc1); 595.5 nm (in ClC(Cl)Cl); 609.5 nm (in ClCCl).

`CC1=[N+]2C(=C(c3ccc(C(=C(c4ccccc4)c4ccccc4)c4ccccc4)cc3)c3ccc(C)n3[B-]2(F)F)C=C1` registered an emission maximum (in C1CCOC1) of 530 nm.

As for `Cc1cc(=O)oc2cc3cc(O)ccc3cc12`, the emission maximum reads like this: (in CC#N) 450 nm; (in CCO) 466 nm.

`F[B-]1(F)OC(c2ccc(N3CCCC3)cc2)=Cc2cccc[n+]21` had an emission maximum (in ClC(Cl)Cl) of 496 nm.

In the case of `O=c1c2ccccc2c2c(C#C[Si](c3ccccc3)(c3ccccc3)c3ccccc3)c3c(=O)c4ccccc4c3c(C#C[Si](c3ccccc3)(c3ccccc3)c3ccccc3)c12`, for the setting “in ClC(Cl)Cl”, the emission maximum is 570 nm.

Take `COc1ccc(-c2c3nc(cc4ccc([nH]4)c(-c4ccc(OC)c(OCC(=O)O)c4)c4nc(cc5ccc2[nH]5)CC4)CC3)cc1OCC(=O)O`: the emission maximum (in CS(C)=O) turned out to be 738 nm.

For the molecule `CCN(CC)c1ccc2cc(-c3ccc(-c4ccc(-c5cc6ccc(N(CC)CC)cc6oc5=O)cc4)cc3)c(=O)oc2c1`, for the setting “in ClCCl”, the emission maximum was determined as 484 nm.

On to `COc1ccc2cc(-c3ccc(C(F)(F)F)cc3)oc(=O)c2c1`, for which the emission maximum is, setting by setting: (in CCCCCC) 397 nm; (in CCCCCCCCO) 410 nm; (in CCCCO) 411 nm; (in CCCO) 410 nm; (in CCO) 412 nm; (in CCOC(C)=O) 404 nm. Further, the emission maximum by setting is: (in CN(C)C=O) 411 nm; (in CO) 413 nm; (in ClC(Cl)Cl) 409 nm.

`c1ccc(-c2nc(-c3c[nH]c4ccccc34)n3ccccc23)cc1`: the emission maximum was 482 nm (in C1CCCCC1); 506 nm (in CC#N); 500 nm (in CO); 506 nm (in ClCCl); 507 nm (in O).

For `COc1cc(/C=C/c2nc3ccccc3o2)c(OC)cc1/C=C/c1nc(C)nc(C)n1`, the emission maximum (in C1CCOC1) was determined as 483 nm, the emission maximum (in CC#N) was 495 nm, the emission maximum (in ClC(Cl)Cl) is recorded as 490 nm and the emission maximum (in ClCCl) was determined as 492 nm.

The values are drawn from the Deep4Chem optical property database.
